Patent US10774080B2, “Pyrimidine compound as JAK kinase inhibitor” (THERAVANCE BIOPHARMA R&D IP, LLC, priority 2017, dated 2020)

Tests used:
[1] = molecular target: T1, JAK1 (Homo sapiens, UniProt P23458); assay: Biochemical JAK kinase assay (LanthaScreen), JAK1; settings: converted from pIC50 by Cheng-Prusoff; ATP at Km 25 μM; read-out: JAK 1 (pKi) (converted)
T1 construct: GST; purchased Life Technologies
Method: Assay 1: Biochemical JAK and Tyk2 Kinase Assays A panel of four LanthaScreen JAK biochemical assays (JAK1, 2, 3 and Tyk2) were carried in a common kinase reaction buffer (50 mM HEPES, pH 7.5, 0.01% Brij-35, 10 mM MgCl2, and 1 mM EGTA). Recombinant GST-tagged JAK enzymes and a GFP-tagged STAT1 peptide substrate were obtained from Life Technologies. Serially or discretely diluted compounds were pre-incubated with each of the four JAK enzymes and the substrate in white 384-well microplates (Corning) at ambient temperature for 1 h. ATP was subsequently added to initiate the kinase reactions in 10 μL total volume, with 1% DMSO. […] The plates were allowed to incubate at ambient temperature for 1 h before being read on the EnVision reader (Perkin Elmer). Emission ratio signals (520 nm/495 nm) were recorded and utilized to calculate the percent inhibition values based on DMSO and background controls. For dose-response analysis, percent inhibition data were plotted vs. compound concentrations, and IC50 values were determined from a 4-parameter robust fit model with the Prism software (GraphPad Software). Results were expressed as pIC50 (negative logarithm of IC50) and subsequently converted to pKi (negative logarithm of dissociation constant, Ki) using the Cheng-Prusoff equation.

[2] = system: IL-13 stimulated STAT6 phosphorylation in normal human epidermal keratinocytes; assay: Assay 13: inhibition of IL-13 stimulated pSTAT6 in normal human epidermal keratinocytes; type: cell-based; settings: Keratinocyte, read-out: pIC50 for inhibition of IL-13 induced STAT6 phosphorylation (converted)
Method: Assay 13: Inhibition of IL-13 Stimulated pSTAT6 in Normal Human Epidermal Keratinocytes
The potency of test compounds for inhibition of interleukin-13 (IL-13) stimulated STAT6 phosphorylation was measured in the normal human epidermal keratinocytes (ATCC) using AlphaLisa. Phosphorylated STAT6 was measured via the AlphaLISA SureFire Ultra pSTAT6 (Tyr641) kit (PerkinElmer).
Primary epidermal keratinocytes were cultured in a 37° C., 5% CO2 humidified incubator in dermal cell basal medium (ATCC) supplemented with keratinocyte growth kit (ATCC) and 1× Pen/Strep (Life Technologies). […]
After cytokine stimulation, cells were lysed with 5 ul of 5× AlphaLisa Lysis Buffer (PerkinElmer) containing 1× PhosStop and Complete tablets (Roche). […] Phosphorylated STAT6 was measured via the pSTAT6 AlphaLisa kit (PerkinElmer). […] Luminescence was measured with excitation at 689 nm and emission at […] using an EnVision plate reader (PerkinElmer) under green filtered <100 lux light.
Luminescence signals were recorded and utilized to calculate the percent inhibition values based on DMSO and controls. For dose-response analysis, percent inhibition data were plotted vs. compound concentrations, and IC50 values were determined from a 4-parameter robust fit model with the Prism software.

[3] = Assay 16: Caco-2 permeation assay; type: in vitro ADME; settings: human, Caco-2, with Verapamil 25 μM (P-gp); as illustrated in Table 13; read-out: permeability class (Caco-2)
Method: (§1) Assay 16: Caco-2 Permeation Assay The Caco-2 permeation assay was used as an indication of skin permeability. The assay measures the rate at which test compounds in solution permeate a cell monolayer (designed to mimic the tight junction of human small intestinal monolayers). CacoReady 24-well transwell plates were obtained from […], Calif.). The compounds were evaluated at a concentration of 5 μM from 10 mM DMSO stock solutions in duplicate (n=2). The passive permeability of the compounds tested was evaluated using Caco-2 cell monolayers along with Verapamil (25 μM) to inhibit P-gp transport proteins in the apical to basolateral (A-B) direction. The experiment was conducted in a 37° C., 5% CO2 incubator. Caco-2 culture media consisted of standard filtered DMEM, FCS 10%, L-Glutamine 1% and PenStrep 1%. Basal assay plate was prepared by adding 750 μL of transport buffer to A-B wells. A CacoReadyTM plate was prepared by removing the Caco-2 media from the apical wells and replacing with fresh transport media (200 μL repeated for a total of 3 washes). Blank media (200 μL) was then replaced with diluted compound for A-B wells. To begin the incubation, the basal plate was removed from the incubator and the apical section was added on top of it. […] The permeation coefficient (Kp, mean A to B+Verapamil […]) in cm/sec was calculated as dQ (flux)/(dt×Area×concentration).

[4] = system: Caco-2 cell monolayers; assay: Assay 16: Caco-2 permeation assay; type: in vitro ADME; settings: 5 μM, A to B, with Verapamil (25 μM), 120 minutes
Method: as §1

T1 sequence (P23458 whole entry): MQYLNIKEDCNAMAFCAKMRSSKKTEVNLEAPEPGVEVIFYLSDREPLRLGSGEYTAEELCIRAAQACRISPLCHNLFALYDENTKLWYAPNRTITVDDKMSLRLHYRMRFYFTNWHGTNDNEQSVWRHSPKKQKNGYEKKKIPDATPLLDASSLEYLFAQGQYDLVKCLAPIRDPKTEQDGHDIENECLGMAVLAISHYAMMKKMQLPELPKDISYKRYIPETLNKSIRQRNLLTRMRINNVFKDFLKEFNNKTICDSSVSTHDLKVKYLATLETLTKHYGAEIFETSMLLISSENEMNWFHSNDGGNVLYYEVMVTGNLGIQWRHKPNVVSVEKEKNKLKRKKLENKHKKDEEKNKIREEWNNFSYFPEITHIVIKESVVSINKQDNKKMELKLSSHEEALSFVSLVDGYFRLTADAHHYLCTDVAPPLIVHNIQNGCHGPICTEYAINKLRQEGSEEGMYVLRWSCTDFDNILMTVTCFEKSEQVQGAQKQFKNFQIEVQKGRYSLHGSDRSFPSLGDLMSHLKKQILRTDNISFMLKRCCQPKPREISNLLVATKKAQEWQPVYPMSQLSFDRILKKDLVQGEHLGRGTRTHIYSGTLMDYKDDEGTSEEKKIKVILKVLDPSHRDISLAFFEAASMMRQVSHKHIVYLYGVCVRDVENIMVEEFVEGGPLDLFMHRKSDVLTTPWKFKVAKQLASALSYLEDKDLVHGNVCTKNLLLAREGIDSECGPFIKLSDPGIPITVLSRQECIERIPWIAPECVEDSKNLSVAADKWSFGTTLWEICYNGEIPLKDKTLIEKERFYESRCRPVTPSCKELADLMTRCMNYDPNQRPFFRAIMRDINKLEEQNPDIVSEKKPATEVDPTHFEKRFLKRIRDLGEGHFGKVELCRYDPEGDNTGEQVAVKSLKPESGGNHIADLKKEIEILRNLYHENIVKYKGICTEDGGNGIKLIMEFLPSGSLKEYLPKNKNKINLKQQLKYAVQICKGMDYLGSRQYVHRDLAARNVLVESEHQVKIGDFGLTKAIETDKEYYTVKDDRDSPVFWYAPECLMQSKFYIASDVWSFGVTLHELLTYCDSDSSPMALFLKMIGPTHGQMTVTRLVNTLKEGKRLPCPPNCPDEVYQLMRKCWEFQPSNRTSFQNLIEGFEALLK

Compound: CCS(=O)(=O)N1[C@@H]2CCC[C@H]1C[C@H](N(C)c1nc(CO)c(F)c(Nc3cc(C)[nH]n3)n1)C2 [Compound (I), (2-(((1R,3s,5S)-9-(ethylsulfonyl)-9-azabicyclo[3.3.1]nonan-3-yl)(methyl)amino)-5-fluoro-6-((5-methyl-1H-pyrazol-3-yl)amino)pyrimidin-4-yl)methanol]
- Ki [1]: 0.0631 nM
- IC50 [2]: 5.01 nM
- Papp A→B at 120 min, 5 μM [3]: > 20 ×10⁻⁶ cm/s
- Cacoverap Kp [4]: 42.3 ×10⁻⁶ cm/s
